# Results from US7947280B2 (priority 2003, dated 2011).
# “Also recorded” adds a separate entry of the source.
# Key:
# [1] = biological target: T1, AT1R (Rattus norvegicus, UniProt P25095); assay: Competitive ligand binding with FAM-labeled AngII in HEK-293 cells; conditions: unlabeled ligand 100 nM; HEK-293 cells transfected with AT1R
# T1 construct: expressed in transfected cells; host or cells: HEK-293
# T1 sequence (P25095 1-359): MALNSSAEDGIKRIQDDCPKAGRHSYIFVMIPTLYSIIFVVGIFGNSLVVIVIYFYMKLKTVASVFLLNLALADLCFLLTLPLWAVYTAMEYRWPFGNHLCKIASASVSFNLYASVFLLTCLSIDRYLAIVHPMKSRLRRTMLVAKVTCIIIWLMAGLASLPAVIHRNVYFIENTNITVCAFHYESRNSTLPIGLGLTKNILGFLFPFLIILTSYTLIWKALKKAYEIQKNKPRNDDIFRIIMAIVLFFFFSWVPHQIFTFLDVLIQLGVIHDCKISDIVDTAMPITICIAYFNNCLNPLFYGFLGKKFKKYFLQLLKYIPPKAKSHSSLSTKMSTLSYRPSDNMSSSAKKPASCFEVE
# [2] = test system: mice with experimentally induced heart failure; conditions: Pyr-apelin-13 2 mg/kg/day; between weeks 1 and 3; n=6
# Procedure: Left anterior decending artery ligation. Animals were anesthetized with 2-3% inhalational isofluorane and 50 mg/kg sodium pentobarbital intraperitoneally. […] The animals were placed in the left lateral decubitus position and a thoracotomy performed at the 4th intercostal space. Peak inspiratory pressures were monitored and maintained between 10-14 cm of water. The lung was retracted and the pericardium incised. The left coronary artery was ligated with a 7-0 prolene suture until blanching of the distal left ventricle was noted. Heart rate and temperature were monitored during the procedure. After ascertaining complete hemostasis, the chest wall was closed in four layers. The animals were weaned from the ventilator and anesthetic and then extubated and monitored in the recovery area.
# Treadmill exercise. […] In mice, a commonly used commercially available setup (Columbus Instruments) employs a moving belt encased in a sealed Plexiglas enclosure, allowing for measurement of oxygen consumption and carbon dioxide production. Stimulus devices consist of a metal shock grid. Metabolic measurements are performed using an open circuit volumetric gas analysis system (Oxymax System; Columbus Instruments). The low dead space of this circuit allows quick gas equilibration with a t1/2 of 30 s, which is highly suitable for use during graded exercise protocols. […]
# [3] = test system: Erk1/2 phosphorylation in RASM; conditions: AngII stimulated RASM
# [4] = test system: isolated human saphenous vein; conditions: Katugampola et al.; cited from earlier work
# [5] = test system: Erk1/2 phosphorylation in HEK293 cells expressing AT1R; conditions: AngII, 5 and 15 minute timepoints
# Procedure: Cell Culture, Transfections, and Stimulation Assays HEK293 cells were cultured in Dulbecco's modified Eagle's medium with 10% fetal bovine serum, 10 units/ml penicillin, and 100 μg/ml streptomycin. Transient transfection of the HEK293 cells was carried out using FuGene reagent per manufacturer's protocols in 6 well plates (Roche). […] For ERK phosphorylation, transfected HEK293 cells were serum starved for 3 hours and incubated with the agonist for designated times at 37 C. Cells were immediately lysed.
# [6] = test system: AT1R and APJ heterodimerization; assay: AT1R-APJ receptor heterodimerization by immunoprecipitation; format: cell-based; conditions: addition of apelin
# Procedure: (§1) Cells were immediately lysed.
# Immunoprecipitation and Western Blotting Immunoprecipitation was performed as previously described (REF). In brief, cells were lysed using 10× Cell Lysis Buffer (Cell Signaling Technologies CITY). Lysates were precleared with protein G and immunoprecipitation was performed with the respective antibodies at concentration of 1 mg/mL for 24 hrs at 4C. Protein G agarose was added and incubated for additional 2 hours. Western blotting on SDS-PAGE gels were performed as previously described, and the bands were visualized using the enhanced chemiluminescence system (Amersham Biosciences).
# [7] = test system: ApoE-KO mice; assay: AngII induced abdominal aortic aneurysm formation model; format: in vivo, mouse
# Procedure: (§2) Animals. Mice were maintained in temperature-controlled (20° C. to 22° C.) environment with a 12-hour light-dark cycle. Sterile water and standard chow diet were available ad libitum. All mice were C57BL/6J ApoE-KO male mice (Jackson Laboratories, Bar Harbor, […].) between the ages of 8-12 weeks. […] Animal procedures were carried out in accordance with the Institutional Review Board Guidelines at Stanford University.
# Abdominal aortic aneurysm formation, sudden death and vein graft procedure. […] Abdominal aortic aneurysm was defined as ≧50% enlargement of the maximal abdominal aorta diameter. Mice that were found dead without any preceding signs of suffering were defined as sudden death.
# [8] = test system: ApoE-KO mice; assay: Vein graft neointimal hyperplasia model; format: in vivo, mouse
# Procedure: as §2
# [9] = test system: mice given angiotensin II and isoproterenol infusions; assay: Neurohormonal cardiomyopathy model, echocardiography; format: in vivo, mouse; conditions: wild type mice
# Procedure: Echocardiography. Two dimensional and M mode echocardiography was carried out using thea GE Vivid ultrasound platform with the small animal probe (13 MHz). […] After shaving of the anterior chest, mice were warmed using a heat lamp. Short axis views of the left ventricle were captured at the level of the papillary muscles in 2D and M modes. Analysis was carried out offline and fractional shortening calculated as [LVEDD−LVESD]/LVEDD where LVEDD is left ventricular end diastolic diameter (measured at the tip of the mitral valve leaflets) and LVESD is left ventricular end systolic diameter.
# Neurohormonal cardiomyopathy model. […] All mice were age 12-14 weeks.
# [10] = test system: NFκB, NFAT, AP-1 and SRE reporter constructs; assay: Luciferase reporter assays of AngII nuclear signaling in HEK-293 cells; format: cell-based
# Text: cDNA Constructs APJ expression construct was purchased from cDNA.org. AT1R construct was obtained from Dr. Marc Caron. AT1R transcript was inserted into a pEGFP-N1 vector (Clonetech). The NF-kB and SRE luciferase reporter constructs were obtained from BD Biosciences.
# as §1
# [11] = test system: eNOS protein; conditions: experimental groups incl. apelin treated animals
# Procedure: Immunoblotting. Lung homogenate (n≧3 per group) were homogenized on ice for 20 seconds in lysis buffer (50 mmol/L Tris, pH 7.5, 150 mmol/L NaCl, 0.1% SDS, 0.5% deoxycholate, 1% Nonidet P-40) containing protease inhibitors (Complete; Boehringer Mannheim) and 1 mmol/L phenylmethylsulfonyl fluoride. Protein lysates (8 μg) were resolved using SDS-PAGE and transferred to polyvinylidene difluoride membranes. Membranes were incubated with a 1:2000 dilution of mouse anti-eNOS monoclonal antibody (Cell Signaling, Location), followed by a 1:2500 dilution of rabbit anti-mouse horseradish peroxidase-conjugated secondary antibody (Promega). Protein bands were visualized by chemiluminescence.
substance,measurement,setting,value
apelin,competition for binding of FAM-AngII (10 nM) to AT1R,[1],did not compete; also recorded: could not compete; also recorded: does not compete
same,average time to exhaustion / exercise capacity,[2],"marked, statistically significant increase"
same,Erk1/2 phosphorylation,[3],decreased
same,effect on isolated human saphenous vein,[4],potently contracts
same,phosphorylation of Erk1/2,[5],dramatically reduced
same,AngII induced receptor heterodimerization,[6],did not affect
same,animals with aneurysm formation,[7]; AngII plus apelin treatment,1/12
same,incidence of AAA formation,[7]; apelin added to AngII infused mice,8%
same,incidence of AAA formation within 4 weeks,[7]; single agent infusion,did not observe AAA formation
same,reduction of mean vessel wall area,[8]; apelin added to AngII treated animals,34%
same,reduction of mean vessel wall area vs saline treated controls,"[8]; apelin, 4 weeks following vein graft surgery",42%
same,heart failure phenotype,[9]; apelin infused concomitantly with angiotensin II and isoproterenol,completely abrogated; also recorded: abrogated completely; also recorded: ameliorates the heart failure phenotype completely
same,fractional shortening (post),"[9]; pyr-apelin-13 2 mg/kg/day with angiotensin II and isoproterenol, 7 day minipumps",42.6±1.3%
same,NFκB reporter activation stimulated by TNF-α and H2O2,[10]; apelin treatment,In neither case did apelin diminish transcription; also recorded: not affected
same,AngII induced increase in reporter transcription,[10]; cells also treated with apelin,abrogated; also recorded: decreased activation
same,eNOS protein levels in aortas,[11],no difference
